Assay results reported in patent US8524691B2, “Phosphonated rifamycins and uses thereof for the prevention and treatment of bone and joint infections” (The Medicines Company, priority 2008, dated 2013).
Converted amounts (≈) assume the structure as drawn. Read-outs that look alike come from different tables or passages of the source.

Columns and labels:
[1] = test system: S. aureus ATCC 13709^A, Novobiocin and Rifampicin resistant variant; assay: Antibacterial susceptibility (MIC), NCCLS broth microdilution; type: cell-based; conditions: for MIC: Staphylococcus aureus, ATCC13709, read-out: Minimum inhibitory concentration, S. aureus ATCC 13709^A
Procedure, shortened: (§1)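 Two-fold serial dilutions in DMSO were tested in cation-adjusted Mueller Hinton broth, following NCCLS M26-A, at 5×10^5 c.f.u./mL with 1.25% DMSO final, in duplicate. Plates were incubated at 37 °C for 18 h. MIC was the lowest concentration inhibiting visible growth.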

S. aureus ATCC 29213 = assay: as above; type: cell-based; conditions: for Minimum inhibitory concentration, S. aureus ATCC 29213: CAMHB, 37° C., 18 h; for MIC: Staphylococcus aureus, ATCC29213, 18 h, read-out: Minimum inhibitory concentration, S. aureus ATCC 29213
Procedure, shortened: as §1

S. aureus ATCC 13709 [2] = assay: microbe, parasite or virus in culture; type: cell-based; conditions: for Minimum inhibitory concentration, S. aureus ATCC 13709: CAMHB, 37° C., 18 h; for Antibacterial activity (in words, from Table 1): S. aureus MIC; for MIC: Staphylococcus aureus, ATCC13709, 18 h, read-out: Minimum inhibitory concentration, S. aureus ATCC 13709
Procedure, shortened: as §1

S. aureus ATCC 13709 [3] = assay: microbe, parasite or virus in culture; type: cell-based; conditions: for Serum dependence of antibacterial activity (in words): MIC with versus without serum; for MIC: Staphylococcus aureus, ATCC13709, 18 h
[4] = test system: Novobiocin resistant mutant strain of S. aureus ATCC 13709; assay: Prophylactic efficacy in rat model of S. aureus bone infection; type: in vivo; conditions: for Measured bacterial titer, test compound: 20 mg/kg parent drug equivalent, tibia 24 h postinfection; for Prophylactic activity in rat bone infection model (in words): 20 mg/kg, 1 day or 5 days prior to infection
Method: To determine the in vivo activity of bisphosphonated prodrugs of Rifamycin derived antibacterials in comparison to their non-bisphosphonated parents, compounds 18, 19, 48a, 59, 66, 89, 95, 102, 110, 142b and 164 and their parent drug rifabutin were used as prophylactic therapeutics in an animal model of infection. Specifically, a spontaneous Novobiocin resistant mutant strain of S. aureus ATCC 13709 (a clinical osteomyelitis isolate), was grown overnight at 37° C. in brain heart infusion broth (BHIB). After 16 h of growth, cells were subcultured into fresh BHIB and incubated for 4 to 5 h at 37° C. The cells were washed twice with phosphate-buffered saline (PBS) and resuspended in BHIB supplemented with 10% (vol./vol.) fetal bovine serum at a density of approximately 10^10 colony forming units (CFU)/ml (based upon turbidimetry). The suspension was aliquoted and a portion was used to check the CFU count. The culture was stored frozen (−80° C.) and was used without subculture. For use as an inoculum the culture was thawed, diluted in PBS and kept in an ice bath until it was used.
Animals were infected as described by O'Reilly et al. (Antimicrobial Agents and Chemotherapy (1992), 36(12): 2693-97) to generate the bone infection. Female CD rats (age, 57 to 70 days; n=5/group; Charles River, St-Constant, Canada) were anaesthetized by isofluorane before and during the surgery. Following complete induction of anesthesia, the rat was placed ventral side up and hair was shaved from the surgical site. The skin over the leg was cleaned and disinfected (proviodine-ethanol 70%). A longitudinal incision below the knee joint was made in the sagital plane. The incision was made over the bone below the “knee joint” (tibia head or condyle) but not completely extending to the ankle. A high speed drill fitted with a 2 mm bulb bit was used to drill a hole into the medullar cavity of the tibia. Rats were injected intra-tibially with 0.05 ml 5% sodium morrhuate (sclerosing agent) and then with 0.05 ml of S. aureus suspension (ca. 2×10^7 CFU/rat). The hole was sealed by applying a small amount of dry dental cement which immediately absorbs fluids and adheres to the site. The wound was closed using 3 metal skin clips. Moxifloxacin (as a positive control) was injected once at 10 mg/kg intravenously 1 h postinfection in saline, while the Rifabutin derived prodrugs (prepared in 0.9% saline) were injected at the dose indicated in Table 3 as a single intravenous bolus at different time points prior to the infection.
Infected rats were sacrificed by CO2 asphyxiation 24 h postinfection to monitor the bacterial CFU count. Infected tibiae were removed, dissected free of soft tissue, and weighed. The bones were ground, 50 mg of charcoal were added and the powder was resuspended in 5 ml 0.9% NaCl, serially diluted and processed for quantitative cultures. Treatment efficacy was measured in terms of Log viable bacteria (Log CFU per gram of bone). […] The limit of detection is 2 Log CFU. Statistical comparisons of viable bacterial counts for the different treated and untreated groups were performed with the Dunnett's multiple-comparison test. Differences were considered significant when the P value was <0.05 when comparing treated infected animals to the untreated infected ones. The doses used, the amount of time separating the treatment from the time of infection and the treatment outcomes are shown in Table 3.

[5] = type: in vitro ADME; conditions: for % Conversion (prodrug converted to parent drug after binding to bone): 24 h incubation, 37° C.
Method: Amounts of parent drug “regenerated” from the phosphonated prodrug were measured as follows. Washed bone powder-bound prodrugs from the above experiment were resuspended in 400 μL PBS+2% DMSO or in 400 μL 50% (v/v in PBS+2% DMSO) human or rat serum. The suspension was incubated overnight at 37° C., centrifuged at 13,000 rpm for 2 min and the supernatant was recovered. The amount of regenerated parent drug in the supernatant was determined by measurements using the microbiological assay that was previously described for the prodrugs themselves. The amount of prodrug was deduced from standard curves of known amounts of parent drug that were used as reference for each experiment. The amount of regenerated drug assessed by this bioassay was corroborated by MIC determination. The percentage of drug regenerated in PBS or serum after the overnight incubation (Table 2) was deduced from the difference between the amount of bound prodrug and the amount of regenerated drug (not shown).

[6] = single intravenous bolus 1 day prior to infection
[7] = single intravenous bolus 5 days prior to infection
[8] = read-out: Minimum inhibitory concentration, ATCC 13709 + 50% Human Serum
[9] = read-out: Minimum inhibitory concentration, ATCC 13709 + 50% Mouse Serum
[10] = read-out: Minimum inhibitory concentration, ATCC 13709 + 50% Rat Serum

SMILES | Minimum inhibitory concentration, S. aureus ATCC 13709^A [1] | Minimum inhibitory concentration, S. aureus ATCC 29213 (S. aureus ATCC 29213) | Minimum inhibitory concentration, S. aureus ATCC 13709 (S. aureus ATCC 13709 [2]) | Minimum inhibitory concentration, ATCC 13709 + 50% Human Serum (S. aureus ATCC 13709 [3]) | Minimum inhibitory concentration, ATCC 13709 + 50% Mouse Serum (S. aureus ATCC 13709 [3]) | Minimum inhibitory concentration, ATCC 13709 + 50% Rat Serum (S. aureus ATCC 13709 [3]) | Serum dependence of antibacterial activity (in words) (S. aureus ATCC 13709 [3]) | Measured bacterial titer, test compound [4, 6] | Prophylactic activity in rat bone infection model (in words) [4] | Antibacterial activity (in words, from Table 1) (S. aureus ATCC 13709 [2]) | Measured bacterial titer, test compound [4, 7] | MIC [1] | MIC (S. aureus ATCC 29213) | MIC (S. aureus ATCC 13709 [2]) | MIC (S. aureus ATCC 13709 [3]; [8]) | MIC (S. aureus ATCC 13709 [3]; [9]) | MIC (S. aureus ATCC 13709 [3]; [10]) | also measured
CCC(=O)OCOC(=O)N(CCCC(P(=O)(O)O)P(=O)(O)O)CCOC(=O)N1C2=C3NC(=O)/C(C)=C\C=C\[C@H](C)[C@H](O)[C@@H](C)[C@@H](O)[C@@H](C)[C@H](OC(C)=O)[C@H](C)[C@@H](OC)/C=C/O[C@@]4(C)Oc5c(C)c(O)c(c(c5C4=O)C2=NC12CCN(CC(C)C)CC2)C3=O [Compound 164] | >128 µg/mL | 4 µg/mL (≈ 3.12 µM) | 4 µg/mL (≈ 3.12 µM) | 8 µg/mL | 2 µg/mL | 0.25 µg/mL | significant increase in antibacterial activity in serum | 5.48 ± 0.64 Log CFU/g of bone | ineffective at 1 day |  |  |  |  |  |  |  |  | 
CO[C@H]1/C=C/O[C@@]2(C)Oc3c(C)c(O)c4c(c3C2=O)C2=NC3(CCN(CC(C)C)CC3)N(C(=O)OCc3cc(C)c(OC(=O)CCC(P(=O)(O)O)P(=O)(O)O)c(C)c3)C2=C(NC(=O)/C(C)=C\C=C\[C@H](C)[C@H](O)[C@@H](C)[C@@H](O)[C@@H](C)[C@H](OC(C)=O)[C@@H]1C)C4=O.N.N [Compound 19] | >128 µg/mL | 0.25 µg/mL | 0.25 µg/mL | 0.125 µg/mL | 0.0625 µg/mL | 0.0156 µg/mL |  | 2.55 ± 0.69 Log CFU/g of bone | active at 1 day and display activity similar to rifabutin at 5 days | very low MICs whether in the absence or in the presence of serum | 3.69 ± 1.45 Log CFU/g of bone |  |  |  |  |  |  | Release of parent rifabutin from bone powder-bound prodrug (in words) [5]: release significant amounts of the parent rifabutin once bound to bone powder, regardless of the presence of serum; % Conversion (prodrug converted to parent drug after binding to bone) ([5]; 50% Heat Inactivated Rat Serum): 0.14%; % Conversion (prodrug converted to parent drug after binding to bone) ([5]; 50% Rat Serum): 0.14%; % Conversion (prodrug converted to parent drug after binding to bone) ([5]; PBS): 0.14%
CCC(=O)OCOC(=O)NCC(=O)OCCN(CCCCC(P(=O)(O)O)P(=O)(O)O)CC(=O)O[C@@H]1[C@@H](C)[C@@H](O)[C@@H](C)[C@H](OC(C)=O)[C@H](C)[C@@H](OC)/C=C/O[C@@]2(C)Oc3c(C)c(O)c4c(c3C2=O)C2=NC3(CCN(CC(C)C)CC3)NC2=C(NC(=O)/C(C)=C\C=C\[C@@H]1C)C4=O [Compound 59] |  |  |  |  |  |  |  | 1.95 ± 0.06 Log CFU/g of bone |  | very low MICs whether in the absence or in the presence of serum |  | > 128 µg/mL | 0.125 µg/mL (≈ 0.0916 µM) | 0.125 µg/mL (≈ 0.0916 µM) | 0.0625 µg/mL | 0.0312 µg/mL | 0.008 µg/mL | 
CCCC(=O)OCCN(CCCCC(P(=O)(O)O)P(=O)(O)O)CC(=O)O[C@@H]1[C@@H](C)[C@@H](O)[C@@H](C)[C@H](OC(C)=O)[C@H](C)[C@@H](OC)/C=C/O[C@@]2(C)Oc3c(C)c(O)c4c(c3C2=O)C2=NC3(CCN(CC(C)C)CC3)NC2=C(NC(=O)/C(C)=C\C=C\[C@@H]1C)C4=O [Compound 48a] | >128 µg/mL | 2 µg/mL (≈ 1.6 µM) | 2 µg/mL (≈ 1.6 µM) | 8 µg/mL | 2 µg/mL | 0.25 µg/mL | significant increase in antibacterial activity in serum | 2.53 ± 0.94 Log CFU/g of bone | more potent than rifabutin at 5 days |  | 2.65 ± 0.85 Log CFU/g of bone |  |  |  |  |  |  | 
CO[C@H]1/C=C/O[C@@]2(C)Oc3c(C)c(O)c4c(c3C2=O)C2=NC3(CCN(CC(C)C)CC3)NC2=C(NC(=O)/C(C)=C\C=C\[C@H](C)[C@H](OC(=O)CN(CCCCC(P(=O)(O)O)P(=O)(O)O)CCNC(=O)OCc2ccc(OC(C)=O)cc2)[C@@H](C)[C@@H](O)[C@@H](C)[C@H](OC(C)=O)[C@@H]1C)C4=O [Compound 66] |  |  |  |  |  |  | significant increase in antibacterial activity in serum | 1.97 ± 0.05 Log CFU/g of bone |  |  |  | > 128 µg/mL | 4 µg/mL (≈ 2.92 µM) | 4 µg/mL (≈ 2.92 µM) | 4 µg/mL | 0.125 µg/mL | 0.008 µg/mL | 
